≈ marks a conversion by molar mass, not a printed value. Where “and” joins values, the source holds several entries; their conditions need not be identical. Identical values can stand only once. Each block holds one molecule with its values, some of them ahead of it.
Key:
Test in all cases: ≥ marks a high value that may be exact or a test limit, other limits are often not marked, values filed in µg/mL are converted to µM
[1] = test system: Mannheimia haemolytica 82-25
[2] = test system: Staphylococcus aureus ATCC 29213
[3] = test system: Serratia marcescens ATCC 14756
[4] = test system: Klebsiella pneumoniae ATCC 10031
[5] = test system: Pseudomonas aeruginosa ATCC 27312
[6] = test system: Enterococcus faecalis ATCC 29212
Candida krusei ATCC 6258 = test system: Candida krusei ATCC 6258
[7] = test system: Escherichia coli ATCC 12795
[8] = test system: Staphylococcus aureus ATCC 43300
[9] = test system: Enterococcus faecium ATCC 35667
[10] = test system: Streptococcus pneumoniae ATCC 700677
[11] = test system: Pseudomonas aeruginosa ATCC 15442
[12] = test system: Staphylococcus aureus VRSA1
[13] = test system: Klebsiella pneumoniae ATCC 700603
[14] = test system: Candida albicans ATCC 90028
[15] = test system: Acinetobacter baumannii ATCC 19606
[16] = test system: Candida tropicalis ATCC 750
[17] = test system: Bacillus subtilis CCT 2576
[18] = test system: Pseudomonas aeruginosa ATCC 27853
[19] = test system: Bacillus megaterium ATCC 13632
[20] = test system: Cryptococcus neoformans ATCC 208821
[21] = test system: Staphylococcus aureus ATCC 6538
[22] = test system: Bacillus subtilis ATCC 6051
[23] = test system: Klebsiella pneumoniae ATCC BAA-1705
Escherichia coli W3110 = test system: Escherichia coli W3110
Listeria monocytogenes = test system: Listeria monocytogenes
[24] = test system: Escherichia coli ATCC 25922
[25] = test system: Staphylococcus aureus WKZ2
[26] = test system: Escherichia coli ATCC 35218
[27] = test system: Pseudomonas aeruginosa PAO1
[28] = test system: Salmonella enterica subsp. enterica serovar Enteritidis 706 RIVM
[29] = test system: Salmonella enterica subsp. enterica serovar Typhimurium ATCC 14028
[30] = test system: Pseudomonas aeruginosa RP73
[31] = test system: Staphylococcus aureus ATCC 6538P
[32] = test system: Escherichia coli MG1655 ΔrecA
[33] = test system: Klebsiella aerogenes ATCC 13048
Escherichia coli MG1655 = test system: Escherichia coli MG1655
[34] = test system: Klebsiella pneumoniae CMCC 46117
[35] = test system: Staphylococcus aureus ATCC 25923
[36] = test system: Bacillus subtilis ATCC 63501
[37] = test system: Escherichia coli ATCC 25922 ΔsbmA
[38] = test system: Shigella flexneri ATCC 12022
[39] = test system: Salmonella typhimurium CMCC 50115
Escherichia coli K88 = test system: Escherichia coli K88
[40] = test system: Salmonella enterica ATCC H9812
[41] = test system: Shigella dysenteriae CMCC 51252
[42] = test system: Shigella flexneri CMCC 51572

MIC [2]: 940 µM (≈ 774 µg/mL)
MIC [3]: ≥ 1500 µM
MIC [4]: ≥ 800 µM
MIC [5]: ≥ 1500 µM
MIC [6]: 1160 µM (≈ 955 µg/mL)
MIC (Candida krusei ATCC 6258): ≥ 3190 µM
MIC [7]: ≥ 570 µM
Structure (SMILES): N[C@@H](CC(=O)O)C(=O)N[C@@H](CC(=O)O)C(=O)N[C@@H](CC(=O)O)C(=O)N[C@@H](CC(=O)O)C(=O)N[C@@H](CC(=O)O)C(=O)N[C@@H](CC(=O)O)C(=O)N[C@@H](CC(=O)O)C(=O)O [DDDDDDD]
MIC [1]: ≥ 80 µM

MIC [8]: 5.1 µM (≈ 8 µg/mL)
MIC [9]: 3.61 µM (≈ 5.65 µg/mL)
MIC [10]: 5.1 µM (≈ 8 µg/mL)
MIC [2]: 5.1 µM (≈ 8 µg/mL)
MIC [11]: ≥ 164 µM
MIC [12]: 3.61 µM (≈ 5.65 µg/mL)
MIC [13]: 81.6 µM (≈ 128 µg/mL)
MIC [14]: 7.22 µM (≈ 11.3 µg/mL)
MIC [15]: 5.1 µM (≈ 8 µg/mL)
MIC [16]: 1.28 µM (≈ 2 µg/mL)
MIC [17]: ≥ 151 µM
MIC [18]: 115 µM (≈ 181 µg/mL)
MIC [19]: 2.55 µM (≈ 4 µg/mL)
MIC [20]: 2.55 µM (≈ 4 µg/mL)
MIC [21]: 122 µM (≈ 191 µg/mL)
MIC [22]: 2.55 µM (≈ 4 µg/mL)
Structure (SMILES): CC[C@H](C)[C@H](N)C(=O)N[C@@H](CC(N)=O)C(=O)N[C@@H](Cc1c[nH]c2ccccc12)C(=O)N[C@@H](CC(C)C)C(=O)N[C@@H](CCCCN)C(=O)N[C@@H](CC(C)C)C(=O)NCC(=O)N[C@@H](CCCCN)C(=O)N[C@@H](C)C(=O)N[C@H](C(=O)N[C@H](C(=O)N[C@@H](CC(=O)O)C(=O)N[C@@H](C)C(=O)N[C@@H](CC(C)C)C(N)=O)[C@@H](C)CC)[C@@H](C)CC [INWLKLGKAIIDAL]

MIC [23]: ≥ 128 µM
MIC (Escherichia coli W3110): 8 µM (≈ 18.4 µg/mL)
Structure (SMILES): CC[C@H](C)[C@H](N)C(=O)N[C@@H](Cc1c[nH]c2ccccc12)C(=O)N[C@@H](Cc1c[nH]c2ccccc12)C(=O)N[C@@H](C)C(=O)N[C@@H](CCCCN)C(=O)N[C@@H](Cc1c[nH]c2ccccc12)C(=O)NCC(=O)N[C@@H](CC(C)C)C(=O)N[C@@H](CCCCN)C(=O)N[C@@H](CC(C)C)C(=O)N[C@@H](CC(C)C)C(=O)N[C@@H](CC(=O)O)C(=O)N[C@@H](Cc1ccc(O)cc1)C(=O)N[C@@H](CCCN=C(N)N)C(=O)N[C@@H](CCCN=C(N)N)C(=O)N[C@H](C(=O)N[C@@H](Cc1c[nH]c2ccccc12)C(=O)O)[C@@H](C)CC [IWWAKWGLKLLDYRRIW]

MIC (Listeria monocytogenes): ≥ 50 µM
MIC [24]: > 50 µM
MIC [25]: ≥ 50 µM
MIC [26]: ≥ 50 µM
MIC [27]: 25 µM (≈ 69.9 µg/mL)
MIC [28]: ≥ 50 µM
MIC [29]: > 50 µM
MIC [30]: 12.5 µM (≈ 34.9 µg/mL)
MIC [31]: 3.12 µM (≈ 8.72 µg/mL)
MIC [6]: > 50 µM
Structure (SMILES): CC(C)C[C@H](NC(=O)[C@@H](NC(=O)[C@@H]1CCCN1C(=O)[C@H](C)NC(=O)[C@H](CCCCN)NC(=O)[C@H](Cc1c[nH]c2ccccc12)NC(=O)[C@H](CCC(N)=O)NC(=O)[C@@H]1CCCN1C(=O)[C@H](Cc1ccccc1)NC(=O)[C@H](Cc1ccc(O)cc1)NC(=O)[C@H](CCCCN)NC(=O)[C@H](CCCN=C(N)N)NC(=O)[C@H](C)NC(=O)[C@@H]1CCCN1C(=O)[C@H](CC(N)=O)NC(=O)[C@H](CC(C)C)NC(=O)[C@H](CC(N)=O)NC(=O)[C@H](Cc1cnc[nH]1)NC(=O)[C@H](CCCCN)NC(=O)[C@H](CCCCN)NC(=O)[C@H](CC(C)C)NC(=O)[C@H](Cc1ccccc1)NC(=O)[C@@H]1CCCN1)[C@@H](C)O)C(=O)O [PFLKKHNLNPARKYFPQWKAPTL]

MIC [32]: 16 µM (≈ 38.4 µg/mL)
MIC [33]: ≥ 64 µM
MIC (Escherichia coli MG1655): ≥ 32 µM
Structure (SMILES): CC(C)C[C@H](NC(=O)CNC(=O)[C@H](C)NC(=O)[C@H](CCCN=C(N)N)NC(=O)[C@H](Cc1cnc[nH]1)NC(=O)[C@@H](NC(=O)[C@@H](N)CCCN=C(N)N)[C@@H](C)O)C(=O)N[C@@H](CCC(N)=O)C(=O)N[C@@H](Cc1ccccc1)C(=O)N1CCC[C@H]1C(=O)N[C@H](C(=O)NCC(=O)N[C@@H](CCCN=C(N)N)C(=O)N[C@H](C(=O)N[C@@H](Cc1cnc[nH]1)C(=O)N[C@@H](CCCN=C(N)N)C(=O)N[C@@H](CC(C)C)C(=O)N[C@@H](CC(C)C)C(=O)N[C@@H](CCCN=C(N)N)C(=O)N[C@@H](CCCCN)C(N)=O)C(C)C)C(C)C [RTHRAGLQFPVGRVHRLLRK]

MIC [34]: ≥ 256 µM
MIC [35]: > 512 µM
MIC [36]: ≥ 512 µM
MIC [4]: ≥ 256 µM
MIC [37]: ≥ 256 µM
MIC [38]: 1 µM (≈ 2.23 µg/mL)
MIC [39]: 1 µM and 2 µM
MIC (Escherichia coli K88): 2 µM (≈ 4.45 µg/mL)
MIC [40]: 2 µM (≈ 4.45 µg/mL)
MIC [6]: > 512 µM
MIC [41]: 4 µM and 2 µM
MIC [42]: 2 µM (≈ 4.45 µg/mL)
Structure (SMILES): CC[C@H](C)[C@H](NC(=O)[C@@H]1CCCN1C(=O)[C@H](CCCN=C(N)N)NC(=O)[C@@H]1CCCN1C(=O)[C@H](CCCN=C(N)N)NC(=O)[C@@H]1CCCN1C(=O)[C@H](CC(C)C)NC(=O)[C@H](Cc1ccc(O)cc1)NC(=O)[C@@H]1CCCN1C(=O)[C@@H]1CCCN1C(=O)[C@H](CCCCN)NC(=O)[C@H](CC(=O)O)NC(=O)[C@@H](N)C(C)C)C(=O)N[C@@H](CCCN=C(N)N)C(=O)N[C@@H](CCCN=C(N)N)C(=O)N1CCC[C@H]1C(=O)NCC(=O)NCC(=O)N[C@@H](CCCN=C(N)N)C(N)=O [VDKPPYLPRPRPIRRPGGR]
